Data: US20130109693A1, “DERIVATIVES OF PYRIDO [3,2-D] PYRIMIDINE, METHODS FOR PREPARATION THEREOF AND THERAPEUTIC USES THEREOF” (UNIVERSITE D'ORLEANS, priority 2010, published 2013)

Assays:
Caco = experiment: Cytotoxicity on human cells, Caco (colon); format: cell-based; settings: exposed 24 h and 48 h, 0.1 to 25 μM
Protocol: (§1) […] Dosages on Human cells (Huh7, Caco, MDA-MB 231, HCT 116, PC3, NCl, Fibroblast)
(§2) Cytotoxicity: This method is based on an automated imaging analysis. 4.10^3 cells were cultivated on 96-well plates and thus left for 24 hours so that they may bind, be distributed and proliferate.
(§3) These cells were then exposed for 24 h and 48 h to increasing concentrations of the compounds of the invention, from 0.1 to 25 μM in a final volume of 80 μL of culture medium. The cells are then set with a 4% paraformaldehyde solution and the nuclei are colored with Hoechst 3342 and counted according to automated imaging quantification.
(§4) All the cell lines were cultivated in a DMEM or RPMI (Invitrogen) medium. All these media were completed with antibiotics (penicillin-streptomycin)(Lonza) and 10% by volume of foetal calf serum (Invitrogen). The cells were cultivated at 37° C. with 5% of CO2. The treatments with the molecules to be tested were carried out with increasing concentrations. […] The control experiments were also conducted by using suitable dilutions of DMSO (maximum 1% DMSO). Cell viability was determined by measuring the reduction of MTS as described in the article of Ribas J, Boix J. (2004). Cell differentiation caspase inhibition and macromolecular synthesis blockage but not BCL-2 or BCL-XL proteins protect SH-SY5Y cells from apoptosis triggered by two CDK inhibitory drugs. Exp. Cell Res., 295: 9-24.

fibroblast = experiment: Cytotoxicity on human cells, fibroblast; format: cell-based; settings: exposed 24 h and 48 h, 0.1 to 25 μM
Protocol: as §1, §2, §3, §4

PC3 = experiment: Cytotoxicity on human cells, PC3 (prostate); format: cell-based; settings: PC-3, human cells, exposed 24 h and 48 h, 0.1 to 25 μM
Protocol: as §1, §2, §3, §4

CDK5 = target: T1, CDK5 (Homo sapiens, UniProt Q00535); experiment: CDK5 kinase inhibition (histone H1, [γ-33P] ATP, buffer C); format: biochemical; settings: 15 μM ATP, 30° C., recombinant; read-out: IC50 Kinases CDK5
T1 construct: made in house
Protocol: (§5) The activities for inhibiting protein kinases of the compounds of the invention are tested according to the following general procedure:
Buffer C: 60 mM β-glycerophosphate, 15 mM p-nitrophenyl-phosphate, 25 mM Mops (pH 7.2), 5 mM EGTA, 15 mM MgCl2, 1 mM DTT, 1 mM of sodium vanadate
(§6) The kinase activities are dosed in buffers A or C, at 30° C., at a final concentration of ATP of 15 μM. The values of the blanks were subtracted and the activities are expressed as a % of the maximum activity, i.e. in the absence of inhibitors. The controls were carried out with suitable dilutions of DMSO.
CDK5 (humane, recombinant) was prepared as described earlier (Leclerc, S.; Garnier, M.; Hoessel, R.; Marko, D.; Bibb, J. A.; Snyder, G. L.; Greengard, P.; Biernat, J.; Mandelkow, E.-M.; Eisenbrand, G.; Meijer, L. Indirubins inhibit glycogen synthase kinase-3β and CDK5/p25, two kinases involved in abnormal tau phosphorylation in Alzheimer's disease—A property common to most CDK inhibitors? J. Biol. Chem. 2001, 276, 251-260; Bach S, Knockaert M, Reinhardt J, Lozach O, Schmitt S, Baratte B et al. (2005). Roscovitine targets, protein kinases and pyridoxal kinase. J. Biol Chem 280: 31208-31219). Its kinase activity was analyzed in the buffer C, with 1 mg of histone H1/mL, in the presence of 15 μM of [γ-^33P] ATP (3,000 Ci/mmol; 10 mCi/mL) in a final volume of 30 μl. After 30 mins of incubation at 30° C., 25 μl of supernatant aliquots were deposited on 2.5×3 cm pieces of phosphocellulose Whatman P81 paper, and after 20 seconds, the filters were washed five times (for at least 5 minutes every time) in a solution of 10 mL phosphoric acid/liter of water. The wet filters were counted in the presence of 1 mL of ACS scintillator fluid (Amersham).

NCI = experiment: Cytotoxicity on human cells, NCI (lung); format: cell-based; settings: exposed 24 h and 48 h, 0.1 to 25 μM
Protocol: as §1, §2, §3, §4

Huh7 = experiment: Cytotoxicity on human cells, Huh7 (liver); format: cell-based; settings: Huh-7, human cells, exposed 24 h and 48 h, 0.1 to 25 μM
Protocol: as §1, §2, §3, §4

HCT 116 = experiment: Cytotoxicity on human cells, HCT 116 (colon); format: cell-based; settings: exposed 24 h and 48 h, 0.1 to 25 μM
Protocol: as §1, §2, §3, §4

GSK-3αβ = GSK-3αβ kinase inhibition (GS-1 substrate, buffer A); format: biochemical; settings: 15 μM ATP, 30° C., native, pig brain; read-out: IC50 Kinases GSK3
Protocol: as §5
(§7) Buffer A: 10 mM MgCl2, 1 mM EGTA, 1 mM DTT, 25 mM Tris-HCl pH 7.5 and 50 μg heparin/mL.
as §6
GSK-3αβ (from pig brain, native) was assayed by using a specific substrate of GSK-3 (GS-1: […]pEDEEE)(Sp represents a phosphorylated serine) (Primot, A., Baratte, B., Gompel, M., Borgne, A., Liabeuf, S., Romette, J. L., Costantini, F. and Meijer, L., 2000. Purification of GSK-3 by affinity chromatography on immobilized axin. Protein Expr. & Purif. 20 (3), 394-404). GS-1 was synthesized by Millegen (Labège, France). Its kinase activity was analyzed in the buffer A, with 1 mg of histone H1/mL, in the presence of 15 μM of [γ-^33P] ATP (3,000 Ci/mmol; 10 mCi/mL) in a final volume of 30 μl. After 30 mins of incubation at 30° C., 25 μl of supernatant aliquots were deposited on 2.5×3 cm pieces of phosphocellulose Whatman P81papier, and after 20 seconds, the filters were washed five times (for at least 5 minutes every time) in a solution of 10 mL of phosphoric acid/liter of water. The wet filters were counted in the presence of 1 mL of ACS scintillator fluid (Amersham).

DYRK1A = DYRK1A (Homo sapiens, UniProt Q13627); experiment: DYRK1A kinase inhibition (Woodtide substrate, buffer A); format: biochemical; settings: 15 μM ATP, 30° C., recombinant GST fusion; read-out: IC50 Kinases DYRK1A
Protocol: as §5, §7, §6

MDA-MB 231 = experiment: Cytotoxicity on human cells, MDA-MB 231 (breast); format: cell-based; settings: MDA-MB-231, human cells, exposed 24 h and 48 h, 0.1 to 25 μM
Protocol: as §1, §2, §3, §4

T1 sequence (Q00535 whole entry): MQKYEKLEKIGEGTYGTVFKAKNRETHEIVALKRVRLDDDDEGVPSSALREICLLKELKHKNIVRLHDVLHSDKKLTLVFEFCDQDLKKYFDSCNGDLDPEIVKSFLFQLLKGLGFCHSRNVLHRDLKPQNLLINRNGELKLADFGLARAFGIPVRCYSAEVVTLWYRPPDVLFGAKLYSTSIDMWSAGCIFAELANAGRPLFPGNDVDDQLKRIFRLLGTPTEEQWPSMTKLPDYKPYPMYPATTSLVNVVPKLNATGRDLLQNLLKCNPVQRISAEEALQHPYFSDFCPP
T1 sequence (Q15078 99-307 partner limits assumed): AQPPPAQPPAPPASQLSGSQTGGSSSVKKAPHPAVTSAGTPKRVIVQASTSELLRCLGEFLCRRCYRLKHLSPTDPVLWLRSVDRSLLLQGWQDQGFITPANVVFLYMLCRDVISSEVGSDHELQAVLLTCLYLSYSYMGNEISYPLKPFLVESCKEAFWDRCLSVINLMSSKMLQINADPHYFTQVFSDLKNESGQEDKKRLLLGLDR

Structure (SMILES) | melting point [°C] | IC50 (Caco) [µM] | IC50 (fibroblast) [µM] | IC50 (PC3) [µM] | IC50 (CDK5) [µM] | IC50 (NCI) [µM] | IC50 (Huh7) [µM] | IC50 (HCT 116) [µM] | IC50 (GSK-3αβ) [µM] | IC50 (DYRK1A) [µM] | IC50 (MDA-MB 231) [µM]
Oc1ccc(Nc2ncc3ncc(-c4ccc(O)cc4)cc3n2)cc1 [Compound 62, 2-(4-Hydroxyphenylamino)-7-(4-hydroxyphenyl)-pyrido[3,2-d]pyrimidine] | > 268 | 15 | 5 | 15 | 0.84 | 4 | 12 | 12 | 7.1 | > 10 | 10
Oc1ccc(-c2ncc3ncc(-c4cccs4)cc3n2)cc1 [Compound 38, 2-(4-Hydroxyphenyl)-7-(2-thiophyl)-pyrido[3,2-d]pyrimidine] | 240 to 242 | > 25 | 2 | 25 | 0.11 | 3 | > 25 | 4 | > 10 | > 10 | > 25
Oc1ccc(Nc2ncc3ncc(-c4ccccc4O)cc3n2)cc1 [Compound 60, 2-(4-Hydroxyphenylamino)-7-(2-hydroxyphenyl)-pyrido[3,2-d]pyrimidine] | 262 to 264 | 4 | 5 | 20 | 3.7 | 5 | 6 | 8 | > 10 | > 10 | 10
Oc1ccc(-c2ncc3ncc(Nc4ccon4)cc3n2)cc1 [Compound 48, 2-(4-Hydroxyphenyl)-7-(3-isoxazolamino)-pyrido[3,2-d]pyrimidine] | > 268 | 20 | 15 | 20 | 2.1 | 3 | 25 | 9 | > 10 | 2 | 12
COc1ccc(Nc2cnc3c(NCc4ccccc4)nc(NCCO)nc3c2)cc1 [Compound 83, 4-Benzylamino-2-(2-hydroxyethylamino)-7-(4-methoxyphenylamino)-pyrido[3,2-d]pyrimidine] | 126 to 127 | 8 | 15 | 12 |  | 6 | 5 | 5 |  |  | 10
Oc1ccc(-c2ncc3ncc(-c4ccncc4)cc3n2)cc1 [Compound 34, 2-(4-Hydroxyphenyl)-7-(4-pyridinyl)-pyrido[3,2-d]pyrimidine] | > 268 | > 25 | 15 | > 25 | 0.13 | 5 | > 25 | 10 | > 10 | > 10 | > 25
Oc1cccc(-c2cnc3cnc(-c4cccc(O)c4)nc3c2)c1 [Compound 21, 2,7-Di-(3-hydroxyphenyl)-pyrido[3,2-d]pyrimidine] | 264 to 265 | 20 | > 25 | 25 | 2.6 | > 25 | > 25 | > 25 | > 100 | 3.4 | > 25
Oc1ccc(Nc2ncc3ncc(Cl)cc3n2)cc1 [Compound 59, 7-Chloro-2-(4-hydroxyphenylamino)-pyrido[3,2-d]pyrimidine] | 232 to 234 | > 25 | 5 | 12 | 1.1 | 10 | 12 | 2 | > 10 | > 10 | 6
OCCNc1nc(NCc2ccccc2)c2ncc(Nc3cnc4ccccc4c3)cc2n1 [Compound 89, 4-Benzylamino-2-(2-hydroxyethylamino)-7-(3-quinolinamino)-pyrido[3,2-d]pyrimidine] | 154 to 155 | 2 | 2 | 3 |  | 2 | 3 | 0.5 |  |  | 3
OCCNc1nc(NCc2ccccc2)c2ncc(Nc3ncccn3)cc2n1 [Compound 87, 4-Benzylamino-2-(2-hydroxyethylamino)-7-(2-pyrimidinylamino)-pyrido[3,2-d]pyrimidine] | 141 to 142 | 8 | 15 | 15 |  | 6 | 7 | 6 |  |  | 15
Oc1ccc(-c2cnc3cnc(-c4ccc(O)cc4)nc3c2)cc1 [Compound 20, 2,7-Di-(4-hydroxyphenyl)-pyrido[3,2-d]pyrimidine] |  | 7 | > 25 | 25 | 0.12 | > 25 | 12 | 12 | 26 | 0.93 | > 25
COc1cccc(Nc2cnc3c(NCc4ccccc4)nc(NCCO)nc3c2)c1 [Compound 84, 4-Benzylamino-2-(2-hydroxyethylamino)-7-(3-methoxyphenylamino)-pyrido[3,2-d]pyrimidine] | 110 to 111 | 4 | 5 | 5 |  | 3 | 3 | 5 |  |  | 15
Oc1ccc(-c2ncc3ncc(-c4ccoc4)cc3n2)cc1 [Compound 36] |  |  | 20 | > 25 |  |  | > 25 | 10 |  | > 10 | 
OCCNc1nc(NCc2ccccc2)c2ncc(Nc3ccc4ncccc4c3)cc2n1 [Compound 90, 4-Benzylamino-2-(2-hydroxyethylamino)-7-(6-quinolinamino)-pyrido[3,2-d]pyrimidine] | 203 to 204 | 4 | 1.5 | 5 |  | 2 | 2 | 1.2 |  |  | 4
